Where a name gives a salt, the structure may show the parent alone. Read-outs that look alike come from different tables or passages of the source.
System: Plasmodium falciparum: 3D7 strain
Experiment: P. falciparum 3D7 asexual blood stage assay (SYBR green readout)
Format: cell-based
Conditions: Plasmodium falciparum, P. falciparum 3D7 in human erythrocytes, 72 h incubation, SYBR green fluorescence
Source text: The compounds of the present invention are potent inhibitors of the growth and propagation of the Plasmodium falciparum parasite in human blood.
The assay used to measure the effect of test compounds on a bloodstream stage of Plasmodium falciparum: 3D7 strain employs SYBR green as the readout. This is a dye that binds to double stranded deoxyribonucleic acid (DNA) with a resulting increase in fluorescence, allowing detection of P. falciparum DNA in infected erythrocytes, and thereby providing a measure of parasite growth and propagation.
Erythrocytes (A+blood) were prepared for both parasite culture and assay by washing 4 times with incomplete media (15.9 g RPMI 1640 (25 mM HEPES, L-glutamine), 1 g NaHCO3, 2 g glucose, 400 μL gentacin (500 mg/mL), 2 mL hypoxanthine solution (13.6 g/L in 0.1M NaOH pH 7.3) in 1 litre of media). The cells were centrifuged at 1800 g for 5 minutes, before decanting the supernatant and re-suspending in fresh incomplete media. On the final wash, the cells were re-suspended in complete media (incomplete media with 5 g/L AlbumaxII), and centrifuged at 1800 g for 3 minutes. This cell sediment was treated as 100% haematocrit.
P. falciparum 3D7 was cultured in erythrocytes at 5% haematocrit in complete media at 37° C. (1% O2, 3% CO2, balance N2). Cultures were split on a weekly basis to achieve a 1% parasitaemia in erythrocites at 5% haematocrit in fresh media. Culture media is replaced by fresh media every other day (2 times during the week).
On day 1, test compounds were added to assay plates using Echo dispensing technology ([…] and 20 points titration). 50 nL of each compound dilution was added to 50 μL of culture (5% haematocrit, 0.5% parasitaemia) and incubated for 72 h at 37° C. (1% O2, 3% CO2, balance N2). Final concentrations of test compounds ranged from 50,000 nM to 15 nM, in […].
On day 4, 10 μL SYBR green (Invitrogen S7563 supplied as 10,000×concentrate in DMSO) pre-diluted to 3×concentrate with Lysis buffer (20 mM Tris pH 7.9, 5% EDTA, 0.16% w/v, 1.6% TX100 v/v) was added to the cultures and incubated in the dark, overnight, at room temperature.
On day 5, fluorescent signal was measured using a BioTek plate reader (excitation 485 nm, emission 528 nm). All data were processed using IDBS ActivityBase. Raw data were converted into percent inhibition through linear regression by setting the high inhibition control (mefloquine) as 100% and the no inhibition control (DMSO) as 0%. Quality control criteria for passing plates were as follows: Z′>0.5, S:B>3, % CV(no inhibition control)<15. The formula used to calculate Z′ is: […]
All EC50 curve fitting was undertaken using the following bi-phasic two site dose response using XLfit model 300 (IDBS):
where A=100 minus the top of the upper curve 1 and the bottom of lower curve; B=Hill slope; log(C)=IC50 concentration at lower site; log(D)=IC50 concentration at upper site; x=inhibitor concentration; and y=% inhibition.

Compound	IC50 (3D7, Erythrocyte, 72 h)	IC50 (Erythrocyte, read-out: IC50)
C[C@H]1C[C@@H](N2C(=N)N[C@](C)(c3cccc(-c4ccc(OC(F)F)nc4)c3Cl)CC2=O)CCS1(=O)=O (relative stereo) [Example 71, (6S)-6-{2-Chloro-3-[6-(difluoro-methoxy)pyridin-3-yl]phenyl}-2-imino-6-methyl-3-[(2S*,4S*)-2-methyl-1,1-dioxothian-4-yl]-hexahydropyrimidin-4-one hydrochloride]	151 nM	–
C[C@@H]1C[C@@H](N2C(=N)N[C@](C)(c3cccc(-c4ccc(OC(F)F)nc4)c3Cl)CC2=O)CCS1(=O)=O (relative stereo) [Example 72, (6S)-6-{2-Chloro-3-[6-(difluoro-methoxy)pyridin-3-yl|phenyl}-2-imino-6-methyl-3-[(2R*,4S*)-2-methyl-1,1-dioxothian-4-yl]-hexahydropyrimidin-4-one hydrochloride]	–	913 nM
C[C@H]1C[C@H](N2C(=N)N[C@](C)(c3cccc(-c4ccc(OC(F)F)nc4)c3Cl)CC2=O)CCS1(=O)=O (relative stereo) [Example 73, (6S)-6-{2-Chloro-3-[6-(difluoro-methoxy)pyridin-3-yl]phenyl}-2-imino-6-methyl-3-[(2S*,4R*)-2-methyl-1,1-dioxothian-4-yl]-hexahydropyrimidin-4-one hydrochloride]	227 nM	–
C[C@@H]1C[C@H](N2C(=N)N[C@](C)(c3cccc(-c4ccc(Cl)cn4)c3Cl)CC2=O)CCS1(=O)=O (relative stereo) [Example 74, (6S)-6-[2-Chloro-3-(5-chloro-pyridin-2-yl)phenyl]-2-imino-6-methyl-3-[(2R*,4R*)-2-methyl-1,1-dioxothian-4-yl]hexahydro-pyrimidin-4-one hydrochloride]	59 nM	–
C[C@H]1C[C@@H](N2C(=N)N[C@](C)(c3cccc(-c4ccc(Cl)cn4)c3Cl)CC2=O)CCS1(=O)=O (relative stereo) [Example 75, (6S)-6-[2-Chloro-3-(5-chloro-pyridin-2-yl)phenyl]-2-imino-6-methyl-3-[(2S*,4S*)-2-methyl-1,1-dioxothian-4-yl]hexahydro-pyrimidin-4-one hydrochloride]	217 nM	–
C[C@H]1C[C@H](N2C(=N)N[C@](C)(c3cccc(-c4ccc(Cl)cn4)c3Cl)CC2=O)CCS1(=O)=O (relative stereo) [Example 76, (6S)-6-[2-Chloro-3-(5-chloro-pyridin-2-yl)phenyl]-2-imino-6-methyl-3-[(2S*,4R*)-2-methyl-1,1-dioxothian-4-yl]hexahydro-pyrimidin-4-one hydrochloride]	2460 nM	–
C[C@@H]1C[C@@H](N2C(=N)N[C@](C)(c3cccc(-c4ccc(Cl)cn4)c3Cl)CC2=O)CCS1(=O)=O (relative stereo) [Example 77, (6S)-6-[2-Chloro-3-(5-chloro-pyridin-2-yl)phenyl]-2-imino-6-methyl-3-[(2R*,4S*)-2-methyl-1,1-dioxothian-4-yl]hexahydro-pyrimidin-4-one hydrochloride]	460 nM	–
C[C@H]1C[C@@H](N2C(=N)N[C@](C)(c3cccc(-c4ccc(OC(F)(F)F)nc4)c3Cl)CC2=O)CCS1(=O)=O (relative stereo) [Example 78, (6S)-6-{2-Chloro-3-[6-(trifluoro-methoxy)pyridin-3-yl]phenyl}-2-imino-6-methyl-3-[(2S*,4S*)-2-methyl-1,1-dioxothian-4-yl]-hexahydropyrimidin-4-one hydrochloride]	365 nM	–
C[C@@H]1C[C@H](N2C(=N)N[C@](C)(c3cccc(-c4ccc(OC(F)(F)F)nc4)c3Cl)CC2=O)CCS1(=O)=O (relative stereo) [Example 79, (6S)-6-{2-Chloro-3-[6-(trifluoro-methoxy)pyridin-3-yl]phenyl}-2-imino-6-methyl-3-[(2R*,4R*)-2-methyl-1,1-dioxothian-4-yl]-hexahydropyrimidin-4-one hydrochloride]	107 nM	–
C[C@H]1C[C@H](N2C(=N)N[C@](C)(c3cccc(-c4ccc(OC(F)(F)F)nc4)c3Cl)CC2=O)CCS1(=O)=O (relative stereo) [Example 80, (6S)-6-{2-Chloro-3-[6-(trifluoro-methoxy)pyridin-3-yl]phenyl}-2-imino-6-methyl-3-[(2S*,4R*)-2-methyl-1,1-dioxothian-4-yl]-hexahydropyrimidin-4-one hydrochloride]	1700 nM	–
C[C@@H]1C[C@@H](N2C(=N)N[C@](C)(c3cccc(-c4ccc(OC(F)(F)F)nc4)c3Cl)CC2=O)CCS1(=O)=O (relative stereo) [Example 81, (6S)-6-{2-Chloro-3-[6-(trifluoro-methoxy)pyridin-3-yl]phenyl}-2-imino-6-methyl-3-[(2R*,4S*)-2-methyl-1,1-dioxothian-4-yl]-hexahydropyrimidin-4-one hydrochloride]	420 nM	–
C[C@H]1C[C@@H](N2C(=N)N[C@](C)(c3cccc(-c4cncc(Cl)c4)c3Cl)CC2=O)CC[C@H]1O (relative stereo) [Example 82, (6S)-6-[2-Chloro-3-(5-chloro-pyridin-3-yl)phenyl]-3-[(1S*,3S*,4R*)-4-hydroxy-3-methylcyclohexyl]-2-imino-6-methylhexahydropyrimidin-4-one hydrochloride]	265 nM	–
C[C@@H]1C[C@H](N2C(=N)N[C@](C)(c3cccc(-c4cncc(Cl)c4)c3Cl)CC2=O)CC[C@@H]1O (relative stereo) [Example 83, (6S)-6-[2-Chloro-3-(5-chloro-pyridin-3-yl)phenyl]-3-[(1R*,3R*,4S*)-4-hydroxy-3-methylcyclohexyl]-2-imino-6-methylhexahydropyrimidin-4-one hydrochloride]	52 nM	–
C[C@@]1(c2cccc(-c3cnn(CC(F)(F)F)c3)c2Cl)CC(=O)N([C@@H]2CCC(F)(F)[C@H](O)C2)C(=N)N1 (relative stereo) [Example 84, (6S)-6-{2-Chloro-3-[1-(2,2,2-trifluoroethyl)pyrazol-4-yl]phenyl}-3-[(1R*,3R*)-4,4-difluoro-3-hydroxycyclohexyl]-2-imino-6-methylhexahydropyrimidin-4-one hydrochloride]	339 nM	–
C[C@@]1(c2cccc(-c3cnn(CC(F)(F)F)c3)c2Cl)CC(=O)N([C@H]2CCC(F)(F)[C@@H](O)C2)C(=N)N1 (relative stereo) [Example 85, (6S)-6-{2-Chloro-3-[1-(2,2,2-trifluoroethyl)pyrazol-4-yl]phenyl}-3-[(1S*,3S*)-4,4-difluoro-3-hydroxycyclohexyl]-2-imino-6-methylhexahydropyrimidin-4-one hydrochloride]	2670 nM	–
C[C@@]1(c2cccc(-c3cc(C4CC4)no3)c2Cl)CC(=O)N([C@@H]2CCC(F)(F)[C@H](O)C2)C(=N)N1 (relative stereo) [Example 86, (6S)-6-[2-Chloro-3-(3-cyclopropyl-isoxazol-5-yl)phenyl]-3-[(1R*,3R*)-4,4-difluoro-3-hydroxy-cyclohexyl]-2-imino-6-methyl-hexahydropyrimidin-4-one hydrochloride]	286 nM	–
C[C@@]1(c2cccc(-c3cc(C4CC4)no3)c2Cl)CC(=O)N([C@H]2CCC(F)(F)[C@@H](O)C2)C(=N)N1 (relative stereo) [Example 87, (6S)-6-[2-Chloro-3-(3-cyclopropyl-isoxazol-5-yl)phenyl]-3-[(1S*,3S*)-4,4-difluoro-3-hydroxycyclohexyl]-2-imino-6-methylhexahydro-pyrimidin-4-one hydrochloride]	2910 nM	–
C[C@@]1(c2cccc(-c3cccc(Cl)c3)c2Cl)CC(=O)N([C@H]2CCOC[C@@H]2O)C(=N)N1 (relative stereo) [Example 95, (6S)-6-[2-Chloro-3-(3-chloro-phenyl)phenyl]-3-[(3R*,4S*)-3-hydroxytetrahydropyran-4-yl]-2-imino-6-methylhexahydro-pyrimidin-4-one hydrochloride]	323 nM	–
C[C@@]1(c2cccc(-c3cccc(Cl)c3)c2Cl)CC(=O)N([C@@H]2CCOC[C@H]2O)C(=N)N1 (relative stereo) [Example 96, (6S)-6-[2-Chloro-3-(3-chloro-phenyl)phenyl]-3-[(3S*,4R*)-3-hydroxytetrahydropyran-4-yl]-2-imino-6-methylhexahydro-pyrimidin-4-one hydrochloride]	1430 nM	–

Reference: patent US20250134890A1, “ANTIMALARIAL HEXAHYDROPYRIMIDINE ANALOGUES” (UCB BIOPHARMA SRL, priority 2022, published 2025)
